Reference: ChEMBL document CHEMBL1145755, “Design, synthesis and biological activity of novel dimethyl-[2-[6-substituted-indol-1-yl]-ethyl]-amine as potent, selective, and orally-bioavailable 5-HT(1D) agonists” (Bioorg Med Chem Lett, 2003)

Key:
[1] = target: T1, 5-hydroxytryptamine receptor 1D (Homo sapiens, UniProt P28221); experiment: Displacement of [3H]5-HT from human 5-hydroxytryptamine 1D receptor expressed in Chinese hamster ovary cells (CHO cells); assay type: cell-based
[2] = target: T1, 5-hydroxytryptamine receptor 1D; experiment: Inhibition of [3H]5-HT binding to human 5-hydroxytryptamine 1D receptor expressed in CHO cells at 1 uM; assay type: cell-based
[3] = target: T1, 5-hydroxytryptamine receptor 1D; experiment: Selectivity of compound to human 5-HT1D receptor to that of human 5-HT1B receptor
[4] = Oral bioavailability in rat; assay type: ADME, organism-based; settings: in vivo
[5] = target: 5-hydroxytryptamine receptor 2A (Homo sapiens) (UniProt P28223); experiment: Inhibition of binding towards 5-hydroxytryptamine 2A receptor at 100 nM concentration
Sequence of 5-hydroxytryptamine receptor 2A (Homo sapiens) (P28223 whole entry): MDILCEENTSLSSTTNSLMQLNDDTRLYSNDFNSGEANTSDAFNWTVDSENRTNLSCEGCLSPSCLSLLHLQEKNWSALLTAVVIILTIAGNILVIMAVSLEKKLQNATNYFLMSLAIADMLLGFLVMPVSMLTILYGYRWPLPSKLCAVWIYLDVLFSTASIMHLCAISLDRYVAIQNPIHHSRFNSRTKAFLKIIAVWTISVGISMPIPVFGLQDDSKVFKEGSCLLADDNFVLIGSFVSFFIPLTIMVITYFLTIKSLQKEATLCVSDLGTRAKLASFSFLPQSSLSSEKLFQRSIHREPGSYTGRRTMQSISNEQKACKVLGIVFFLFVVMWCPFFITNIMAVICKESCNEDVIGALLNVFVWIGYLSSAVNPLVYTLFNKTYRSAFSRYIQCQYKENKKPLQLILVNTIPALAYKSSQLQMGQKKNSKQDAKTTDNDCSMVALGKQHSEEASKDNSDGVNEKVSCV

[6] = species: Homo sapiens; experiment: In vitro metabolic stability of compound after 30 min incubation in the presence of human liver microsomes; assay type: functional
[7] = target: T2, 5-hydroxytryptamine receptor 1A (Homo sapiens) (UniProt P08908); experiment: Inhibition of binding towards 5-hydroxytryptamine 1A receptor at 100 nM concentration
T2 sequence (whole entry): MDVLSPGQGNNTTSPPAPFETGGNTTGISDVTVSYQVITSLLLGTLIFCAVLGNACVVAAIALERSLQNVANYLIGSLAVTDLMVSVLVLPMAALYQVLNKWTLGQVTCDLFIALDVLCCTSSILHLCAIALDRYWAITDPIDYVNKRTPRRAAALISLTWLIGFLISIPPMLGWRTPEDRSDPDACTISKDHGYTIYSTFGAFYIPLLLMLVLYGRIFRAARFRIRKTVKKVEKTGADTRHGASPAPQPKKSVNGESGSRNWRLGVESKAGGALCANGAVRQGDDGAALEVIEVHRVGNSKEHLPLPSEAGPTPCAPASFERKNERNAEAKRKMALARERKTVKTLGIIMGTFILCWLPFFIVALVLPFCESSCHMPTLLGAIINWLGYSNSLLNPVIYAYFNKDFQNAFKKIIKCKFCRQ

[8] = Half period in rat after intravenous administration; assay type: ADME, organism-based; settings: in vivo
[9] = target: 5-hydroxytryptamine receptor 7 (Homo sapiens) (UniProt P34969); experiment: Inhibition of binding towards 5-hydroxytryptamine 7 receptor at 100 nM concentration
Sequence of 5-hydroxytryptamine receptor 7 (Homo sapiens) (P34969 whole entry): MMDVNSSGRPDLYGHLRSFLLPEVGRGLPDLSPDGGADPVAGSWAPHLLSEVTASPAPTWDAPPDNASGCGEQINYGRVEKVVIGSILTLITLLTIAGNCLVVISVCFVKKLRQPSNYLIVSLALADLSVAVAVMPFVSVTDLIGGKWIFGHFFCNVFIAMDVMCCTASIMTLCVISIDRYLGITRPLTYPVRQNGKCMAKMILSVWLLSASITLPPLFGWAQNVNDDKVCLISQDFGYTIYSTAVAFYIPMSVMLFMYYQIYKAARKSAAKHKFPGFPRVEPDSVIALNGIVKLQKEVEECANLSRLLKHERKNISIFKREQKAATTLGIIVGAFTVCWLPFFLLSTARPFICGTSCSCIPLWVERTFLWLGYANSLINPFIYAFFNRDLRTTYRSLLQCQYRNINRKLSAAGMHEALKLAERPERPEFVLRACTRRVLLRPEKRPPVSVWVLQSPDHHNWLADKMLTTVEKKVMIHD

[10] = target: D(3) dopamine receptor (Homo sapiens) (UniProt P35462); experiment: Inhibition of binding towards dopamine 3 receptor at 100 nM concentration
Sequence of D(3) dopamine receptor (Homo sapiens) (P35462 whole entry): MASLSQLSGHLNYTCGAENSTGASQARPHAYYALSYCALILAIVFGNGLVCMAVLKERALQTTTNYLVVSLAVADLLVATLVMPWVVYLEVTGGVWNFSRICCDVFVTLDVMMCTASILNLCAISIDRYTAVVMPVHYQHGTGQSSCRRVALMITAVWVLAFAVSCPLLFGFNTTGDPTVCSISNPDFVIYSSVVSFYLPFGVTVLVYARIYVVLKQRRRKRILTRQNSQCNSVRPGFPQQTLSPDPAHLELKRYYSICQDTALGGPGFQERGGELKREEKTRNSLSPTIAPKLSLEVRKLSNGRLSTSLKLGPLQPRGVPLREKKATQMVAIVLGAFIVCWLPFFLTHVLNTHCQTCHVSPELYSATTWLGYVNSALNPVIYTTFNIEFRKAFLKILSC

[11] = species: Rattus norvegicus; experiment: In vitro metabolic stability of compound after 30 min incubation in the presence of rat liver microsomes; assay type: functional
[12] = target: T1, 5-hydroxytryptamine receptor 1D; experiment: Ability to inhibit forskolin-stimulated adenylate cyclase activity in Chinese hamster ovary (CHO) stable cell lines expressing human 5-hydroxytryptamine 1D receptor; assay type: functional
[13] = target: T1, 5-hydroxytryptamine receptor 1D; experiment: Inhibition of binding towards 5-hydroxytryptamine 1D receptor at 100 nM concentration
[14] = target: T3, D(4) dopamine receptor (Homo sapiens) (UniProt P21917); experiment: Inhibition of binding towards dopamine 4 receptor at 100 nM concentration
T3 sequence (whole entry): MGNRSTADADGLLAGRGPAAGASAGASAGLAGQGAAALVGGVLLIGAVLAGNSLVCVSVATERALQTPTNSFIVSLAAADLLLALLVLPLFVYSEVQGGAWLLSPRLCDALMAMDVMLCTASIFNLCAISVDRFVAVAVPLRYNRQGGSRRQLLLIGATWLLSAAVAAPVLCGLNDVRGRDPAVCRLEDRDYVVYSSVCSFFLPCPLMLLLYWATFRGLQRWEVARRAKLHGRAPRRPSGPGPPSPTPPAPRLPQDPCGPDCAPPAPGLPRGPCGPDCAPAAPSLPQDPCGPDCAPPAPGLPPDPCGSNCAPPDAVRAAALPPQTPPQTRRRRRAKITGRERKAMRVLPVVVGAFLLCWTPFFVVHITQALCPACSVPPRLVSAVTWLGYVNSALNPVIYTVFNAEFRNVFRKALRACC

[15] = target: 5-hydroxytryptamine receptor 6 (Homo sapiens) (UniProt P50406); experiment: Inhibition of binding towards 5-hydroxytryptamine 6 receptor at 100 nM concentration
Sequence of 5-hydroxytryptamine receptor 6 (Homo sapiens) (P50406 whole entry): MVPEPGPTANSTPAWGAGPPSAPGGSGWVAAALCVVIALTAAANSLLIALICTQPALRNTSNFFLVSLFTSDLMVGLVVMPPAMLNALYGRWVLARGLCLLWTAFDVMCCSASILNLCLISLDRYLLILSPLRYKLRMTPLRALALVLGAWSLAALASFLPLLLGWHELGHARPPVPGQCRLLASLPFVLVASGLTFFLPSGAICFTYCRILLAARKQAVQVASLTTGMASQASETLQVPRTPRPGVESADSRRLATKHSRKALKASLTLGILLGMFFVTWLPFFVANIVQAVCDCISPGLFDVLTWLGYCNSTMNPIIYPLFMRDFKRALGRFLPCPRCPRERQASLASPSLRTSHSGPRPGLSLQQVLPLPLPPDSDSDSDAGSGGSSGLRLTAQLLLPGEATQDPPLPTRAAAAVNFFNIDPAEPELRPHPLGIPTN

[16] = Compound distribution in rat tissues was determined; assay type: ADME, organism-based; settings: in vivo
[17] = target: Adrenergic receptor alpha-1 (Homo sapiens) (UniProt P35348+P25100+P35368); experiment: Inhibition of binding towards Alpha-1 adrenergic receptor at 100 nM concentration; assay type: protein assay
[18] = target: 5-hydroxytryptamine receptor 1B (Homo sapiens) (UniProt P28222); experiment: Inhibition of binding towards 5-hydroxytryptamine 1B receptor at 100 nM concentration
Sequence of 5-hydroxytryptamine receptor 1B (Homo sapiens) (P28222 whole entry): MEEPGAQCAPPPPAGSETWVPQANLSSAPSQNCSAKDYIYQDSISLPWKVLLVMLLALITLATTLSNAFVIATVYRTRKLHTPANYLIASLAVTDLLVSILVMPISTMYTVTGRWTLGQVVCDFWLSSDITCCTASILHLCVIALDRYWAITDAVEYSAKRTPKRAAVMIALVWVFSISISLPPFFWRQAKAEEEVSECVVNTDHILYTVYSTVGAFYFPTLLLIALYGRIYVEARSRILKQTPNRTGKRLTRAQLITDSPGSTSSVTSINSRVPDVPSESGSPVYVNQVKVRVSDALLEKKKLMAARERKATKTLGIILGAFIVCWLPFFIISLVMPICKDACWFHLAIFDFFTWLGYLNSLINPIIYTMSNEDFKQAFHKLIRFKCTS

[19] = Plasma clearance was determined in rat; assay type: ADME, organism-based
[20] = target: Muscarinic acetylcholine receptors; M1 & M2 (Homo sapiens) (UniProt P11229+P08172); experiment: Inhibition of binding towards muscarinic (M1+M2) receptor at 100 nM concentration; assay type: protein assay
[21] = target: D(2) dopamine receptor (Homo sapiens) (UniProt P14416); experiment: Inhibition of binding towards dopamine 2 receptor at 100 nM concentration
Sequence of D(2) dopamine receptor (Homo sapiens) (P14416 whole entry): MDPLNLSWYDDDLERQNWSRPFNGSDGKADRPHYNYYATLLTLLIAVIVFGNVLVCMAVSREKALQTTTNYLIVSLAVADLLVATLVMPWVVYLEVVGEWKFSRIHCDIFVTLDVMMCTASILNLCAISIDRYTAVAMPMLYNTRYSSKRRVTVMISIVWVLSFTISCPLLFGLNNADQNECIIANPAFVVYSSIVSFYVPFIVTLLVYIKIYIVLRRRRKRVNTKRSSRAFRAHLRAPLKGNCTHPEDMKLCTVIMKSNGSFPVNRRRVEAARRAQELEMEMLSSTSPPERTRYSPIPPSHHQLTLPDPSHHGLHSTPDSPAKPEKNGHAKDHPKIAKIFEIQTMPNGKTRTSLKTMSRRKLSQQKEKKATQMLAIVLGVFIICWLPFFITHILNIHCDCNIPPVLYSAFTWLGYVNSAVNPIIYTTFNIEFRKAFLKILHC

[22] = Cmax in rat; assay type: ADME, organism-based; settings: in vivo
[23] = system: Rattus norvegicus; experiment: Area under curve was determined after peroral administration in rat; assay type: ADME, organism-based; settings: in vivo, po
[24] = target: D(1A) dopamine receptor (Homo sapiens) (UniProt P21728); experiment: Inhibition of binding towards dopamine 1 receptor at 100 nM concentration
Sequence of D(1A) dopamine receptor (Homo sapiens) (P21728 whole entry): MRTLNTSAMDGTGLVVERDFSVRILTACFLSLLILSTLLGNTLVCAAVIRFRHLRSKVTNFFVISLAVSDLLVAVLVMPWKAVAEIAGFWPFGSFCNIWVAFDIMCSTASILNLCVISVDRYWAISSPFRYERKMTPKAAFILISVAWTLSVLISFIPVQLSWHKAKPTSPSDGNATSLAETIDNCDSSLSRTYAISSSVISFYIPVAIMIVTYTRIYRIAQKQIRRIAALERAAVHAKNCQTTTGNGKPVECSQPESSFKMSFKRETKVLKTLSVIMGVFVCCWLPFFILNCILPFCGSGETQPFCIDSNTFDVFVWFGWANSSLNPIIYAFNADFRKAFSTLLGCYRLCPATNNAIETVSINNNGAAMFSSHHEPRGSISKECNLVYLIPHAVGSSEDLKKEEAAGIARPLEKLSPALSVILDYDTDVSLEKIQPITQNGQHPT

[25] = target: T4, 5-hydroxytryptamine receptor 2C (Homo sapiens) (UniProt P28335); experiment: Inhibition of binding towards 5-hydroxytryptamine 2C receptor at 100 nM concentration
T4 sequence (whole entry): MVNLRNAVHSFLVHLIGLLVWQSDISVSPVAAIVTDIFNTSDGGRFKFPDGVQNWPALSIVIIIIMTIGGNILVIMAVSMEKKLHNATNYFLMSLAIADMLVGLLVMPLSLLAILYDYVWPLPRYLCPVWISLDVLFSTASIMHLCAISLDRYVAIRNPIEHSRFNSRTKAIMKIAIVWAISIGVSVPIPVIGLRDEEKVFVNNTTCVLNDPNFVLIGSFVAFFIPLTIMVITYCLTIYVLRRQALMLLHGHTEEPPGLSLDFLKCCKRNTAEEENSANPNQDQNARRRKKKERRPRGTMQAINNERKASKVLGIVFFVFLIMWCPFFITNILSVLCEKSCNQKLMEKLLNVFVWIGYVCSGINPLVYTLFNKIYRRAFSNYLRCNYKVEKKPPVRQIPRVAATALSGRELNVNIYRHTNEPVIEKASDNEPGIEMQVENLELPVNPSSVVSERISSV

[26] = target: D(1B) dopamine receptor (Homo sapiens) (UniProt P21918); experiment: Inhibition of binding towards dopamine 5 receptor at 100 nM concentration
Sequence of D(1B) dopamine receptor (Homo sapiens) (P21918 whole entry): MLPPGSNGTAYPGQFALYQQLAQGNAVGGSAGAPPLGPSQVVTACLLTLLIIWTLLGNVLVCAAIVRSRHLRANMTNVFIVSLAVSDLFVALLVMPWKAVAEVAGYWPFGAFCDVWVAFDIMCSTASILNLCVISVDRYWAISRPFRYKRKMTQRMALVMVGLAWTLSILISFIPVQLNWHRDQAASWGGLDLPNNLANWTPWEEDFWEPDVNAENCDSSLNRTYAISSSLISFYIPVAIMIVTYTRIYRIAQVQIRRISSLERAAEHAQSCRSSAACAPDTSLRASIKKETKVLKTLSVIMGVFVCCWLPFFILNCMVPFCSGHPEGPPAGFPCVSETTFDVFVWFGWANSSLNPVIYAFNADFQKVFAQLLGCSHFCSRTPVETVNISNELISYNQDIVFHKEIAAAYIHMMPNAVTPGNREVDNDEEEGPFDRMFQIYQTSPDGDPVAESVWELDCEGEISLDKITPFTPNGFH

T1 sequence (P28221 whole entry): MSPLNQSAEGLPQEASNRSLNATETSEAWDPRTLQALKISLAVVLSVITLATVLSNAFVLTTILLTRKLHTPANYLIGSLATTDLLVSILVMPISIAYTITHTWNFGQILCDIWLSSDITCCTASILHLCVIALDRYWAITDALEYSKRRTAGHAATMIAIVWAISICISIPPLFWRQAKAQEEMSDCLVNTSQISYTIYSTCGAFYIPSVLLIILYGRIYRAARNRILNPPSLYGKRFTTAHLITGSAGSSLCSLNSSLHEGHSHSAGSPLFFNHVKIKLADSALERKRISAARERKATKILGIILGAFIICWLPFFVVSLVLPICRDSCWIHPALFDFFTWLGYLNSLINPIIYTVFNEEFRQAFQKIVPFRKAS

CN(C)CCn1ccc2ccc(C3CCSCC3)cc21
Ki [1]: 5.6 nM
inhibition [2]: 99%
Selectivity [3]: 48

CN(C)CCn1ccc2ccc(C3(O)CCOCC3)cc21
Ki [1]: 3.4 nM
Selectivity [3]: 48

CN(C)CCn1ccc2ccc(N3CCSCC3)cc21
inhibition [2]: 88%

CN(C)CCn1ccc2ccc(C3(O)CCN(C)CC3)cc21
inhibition [2]: 44%

CN(C)CCn1ccc2ccc(-c3ccsc3)cc21
Ki [1]: 7.3 nM
inhibition [2]: 99%
Selectivity [3]: 22

CN(C)CCn1ccc2ccc(C3CCN(C)CC3)cc21
inhibition [2]: 74%

CN(C)CCn1ccc2ccc(-c3ccc4ccccc4c3)cc21
Ki [1]: 57 nM
inhibition [2]: 79%
Selectivity [3]: 5.5

CN(C)CCn1ccc2ccc(C3=CCOCC3)cc21
Ki [1]: 32 nM
Selectivity [3]: 28

CN(C)CCn1ccc2ccc(C3(O)CCSCC3)cc21
bioavailability [4]: 51.1%
inhibition [5]: 0%
Remaining [6]: 70%
inhibition [7]: 27%
Ki [1]: 2 nM
half-life [8]: 1.5 h
inhibition [9]: 5%
inhibition [10]: 0%
Remaining [11]: 79%
EC50 [12]: 0.3 nM
inhibition [13]: 96%
inhibition [14]: 2%
inhibition [15]: 0%
Vd [16]: 8.61 L/kg
inhibition [17]: 1%
inhibition [18]: 46%
clearance [19]: 74 mL/min/kg
inhibition [20]: 0%
inhibition [21]: 0%
Cmax [22]: 538 ng/mL
inhibition [2]: 99%
Selectivity [3]: 57
AUC [23]: 21265 ng·mL/kg
inhibition [24]: 0%
inhibition [25]: 4%
inhibition [26]: 1%

CNC(=O)c1ccc2c(c1)CCO[C@H]2CCN1CCN(c2ccc(C(N)=O)cc2)CC1
Ki [1]: 4.6 nM

CN(C)CCn1ccc2ccc(-c3cccnc3)cc21
Ki [1]: 1.4 nM
inhibition [2]: 98%
Selectivity [3]: 17

CN(C)CCn1ccc2ccc(N3CCOCC3)cc21
inhibition [2]: 85%

CN(C)CCn1ccc2ccc(C3CCOCC3)cc21
Ki [1]: 3.7 nM

CN(C)CCn1ccc2ccc(-c3ccc(C(F)(F)F)cc3)cc21
inhibition [2]: 86%

CN(C)CCn1ccc2ccc(C3=CCSCC3)cc21
Ki [1]: 22 nM
inhibition [2]: 95%
Selectivity [3]: 7.4

CN(C)CCn1ccc2ccc(C3=CCN(C)CC3)cc21
inhibition [2]: 84%

OC[C@H](NC1CCN(CCCc2c[nH]c3ccc(-n4cnnc4)cc23)CC1)c1ccc(F)cc1
Ki [1]: 0.9 nM
